In patent publication US20030109486A1 (priority 2001, published 2003):
Entries after “also recorded” stand apart in the source; their conditions may differ. Read-outs that look alike come from different tables or passages of the source. Each block holds one molecule with its values, some of them ahead of it.

Legend:
[1] = Solubility in isotonic aqueous solutions of sodium chloride; details: salts
SA + AV node = details: Cells/Organ; cited from earlier work
Airway mucosa [2] = details: Cells/Organ; cited from earlier work
Airway mucosa [3] = details: Patients, cited from earlier work; for Mucociliary clearance: epithelia of cystic fibrosis patients; for Chloride secretion: observed in epithelia of healthy participants and cystic fibrosis patients
Tumor [4] = details: Cells/Organ; cited from earlier work
Tumor [5] = details: Animals; cited from earlier work
Tumor [6] = details: Patients; cited from earlier work
[7] = Stability of ATP solutions; format: physicochemical
Description: An example of a clinical procedure in the treatment of ALI and ARDS is as follows. After determination of baseline, pre-treatment hemodynamic variables, blood gases and pH values, an ATP dose escalation procedure is initiated. ATP is provided as a sterile solution in single use vials. […] Storage of the clinical solution is at controlled refrigerated temperature (2° C.-8° C. ). […] The concentration of the final sterile solution for the infusion is 8 mg/ml.
The product must be stored at controlled refrigerated temperature (2° C.-[…]). At pH 6.7-7.2, the sodium salt in aqueous solution is stable.

[8] = Animals; cited from earlier work
[9] = Patients; cited from earlier work
[10] = Animals; cited from earlier work; remark: listed apart in the source
[11] = Patients; cited from earlier work; remark: listed apart in the source
[12] = Patients; cited from earlier work; remark: listed apart in the source
[13] = Cells/Organ; cited from earlier work
[14] = Animals; cited from earlier work; remark: listed apart in the source
[15] = Patients; cited from earlier work; remark: listed apart in the source
[16] = Cells/Organ; cited from earlier work; remark: listed apart in the source
[17] = intravenous, cited from earlier work
[18] = of seven children; infused directly into the pulmonary artery for 30 minutes to 30 hours; cited from earlier work
[19] = cited from earlier work; for whole blood ATP concentration, higher than the pretreatment values: 24 hr of infusion, average
[20] = system: non-small cell lung cancer; details: cited from earlier work
[21] = cited from earlier work
[22] = system: tissue type plasminogen activator (tPA); details: infusions in humans; cited from earlier work
[23] = low doses, intravenous; cited from earlier work
[24] = cited from earlier work; remark: listed apart in the source
[25] = intravenous; cited from earlier work
[26] = single arm study; cited from earlier work
[27] = in vivo; cited from earlier work
[28] = infusions; rat kidney, rat lung, dog heart, rabbit lung, rat gut; cited from earlier work
[29] = intramuscular; cited from earlier work
[30] = cited from earlier work; remark: listed apart in the source
[31] = ATP infusion rate 500-1000 μg/kg/min
[32] = ATP infusion rate ≦100 μg/kg/min
[33] = 50 or 65 microgram/kg/min for 96 hr, once every 4 weeks
[34] = administration directly into the pulmonary artery or into the superior vena cava
[35] = healthy individuals, COPD patients, patients after surgical repair of congenital heart defects

solubility in isotonic aqueous solutions of sodium chloride [1]: high solubility
SMILES: Nc1ncnc2c1ncn2[C@@H]1O[C@H](COP(=O)(O)O)[C@@H](O)[C@H]1O [AMP, adenosine 5′-monophosphate]

solubility in isotonic aqueous solutions of sodium chloride [1]: high solubility
SMILES: Nc1ncnc2c1ncn2[C@@H]1O[C@H](COP(=O)(O)OP(=O)(O)O)[C@@H](O)[C@H]1O [ADP, adenosine 5′-diphosphate]

solubility in isotonic aqueous solutions of sodium chloride [1]: high solubility
SMILES: Nc1ncnc2c1ncn2[C@@H]1O[C@H](CO)[C@@H](O)[C@H]1O [adenosine, reference compound]
SA + AV node conduction (SA + AV node): Inhibited
Chloride secretion (Airway mucosa [2]): Increased
Ciliary beat frequency (Airway mucosa [2]): Increased
Mucus secretion (Airway mucosa [2]): Increased
Surfactant secretion (Airway mucosa [2]): Increased
Water secretion (Airway mucosa [2]): Increased
Mucociliary clearance (Airway mucosa [3]): Increased
Chloride secretion (Airway mucosa [3]): Increased
Chemotherapy efficacy (Tumor [4]): Increased
Radiotherapy damage (Tumor [4]): Reduced
Radiotherapy efficacy (Tumor [4]): Increased
Tumor growth (Tumor [4]): Inhibited
Cancer treatment: Weight loss (Tumor [5]): Inhibited
Chemotherapy efficacy (Tumor [5]): Increased
Radiotherapy damage (Tumor [5]): Reduced
Radiotherapy efficacy (Tumor [5]): Increased
Radiotherapy survival rate (Tumor [5]): Increased
Tumor growth (Tumor [5]): Inhibited
Cancer treatment: Weight loss (Tumor [6]): Inhibited
Tumor growth (Tumor [6]): Inhibited

SMILES: Nc1ncnc2c1ncn2[C@@H]1O[C@H](COP(=O)(O)OP(=O)(O)OP(=O)(O)O)[C@@H](O)[C@H]1O [ATP, adenosine 5′-triphosphate]
stability of the final ATP solutions at room temperature ([7]; final infusion solution 8 mg/ml in 0.5 normal saline, room temperature): at least 96 hours
stability of the sodium salt in aqueous solution ([7]; pH 6.7-7.2): stable
Anaesthetic requirement [8]: Reduced
Pain [8]: Reduced
Anaesthetic requirement [9]: Reduced
Blood pressure during surgery [9]: Reduced
Opioid requirement after surgery [9]: Reduced
Pain [9]: Reduced
Pulmonary hypertension [10]: Reduced
Pulmonary hypertension [11]: Reduced
SA + AV node conduction (SA + AV node): Inhibited
SA + AV node conduction [12]: Inhibited
Supraventricular tachycardias [12]: Inhibited
Shock: Organ function [13]: Improved
Shock: Organ function [14]: Improved
Shock: Survival rate [14]: Increased
Shock: Survival rate [15]: Increased
Chloride secretion (Airway mucosa [2]): Increased
Ciliary beat frequency (Airway mucosa [2]): Increased
Mucus secretion (Airway mucosa [2]): Increased
Surfactant secretion (Airway mucosa [2]): Increased
Water secretion (Airway mucosa [2]): Increased
Mucociliary clearance (Airway mucosa [3]): Increased
Chloride secretion (Airway mucosa [3]): Increased
Glycogenolysis [16]: Increased
Chemotherapy efficacy (Tumor [4]): Increased
Radiotherapy damage (Tumor [4]): Reduced
Radiotherapy efficacy (Tumor [4]): Increased
Tumor growth (Tumor [4]): Inhibited
Cancer treatment: Weight loss (Tumor [5]): Inhibited
Chemotherapy efficacy (Tumor [5]): Increased
Radiotherapy damage (Tumor [5]): Reduced
Radiotherapy efficacy (Tumor [5]): Increased
Radiotherapy survival rate (Tumor [5]): Increased
Tumor growth (Tumor [5]): Inhibited
Cancer treatment: Weight loss (Tumor [6]): Inhibited
Tumor growth (Tumor [6]): Inhibited
Cardiac Output [17, 31]: Increase
Heart Rate [17, 31]: Increase
Pulmonary Arterial Pressure [17, 31]: Decrease
Pulmonary Vascular Resistance [17, 31]: Decrease
Systemic Arterial Pressure [17, 31]: Decrease
Systemic Vascular Resistance [17, 31]: Decrease
Cardiac Output [17, 32]: Small Increase
Heart Rate [17, 32]: No Change
Pulmonary Arterial Pressure [17, 32]: Decrease
Pulmonary Vascular Resistance [17, 32]: Decrease
Systemic Arterial Pressure [17, 32]: did not alter; also recorded: No Change
Systemic Vascular Resistance [17, 32]: Small Decrease
children in whom hypertension crises were completely resolved and hemodynamic stability restored [18]: 4 children
whole blood ATP concentration, higher than the pretreatment values ([19]; 50 microgram/kg/min): 63%
whole blood ATP concentration, higher than the pretreatment values ([19]; 75 microgram/kg/min): 67%
whole blood ATP concentration, higher than the pretreatment values ([19]; 100 microgram/kg/min): 113%
blood concentrations of ATP between 24 and 96 hr of the infusion ([19]; in vivo): relatively constant or slightly declined
hematologic, renal, hepatic, or gastrointestinal toxicity [20, 33]: No significant
patients exhibiting stable disease after treatment [20, 33]: majority of patients
tumor shrinking [20, 33]: no significant
overall survival ([20]; as compared with historical data): beneficial effects
patient performance status ([20]; in vivo): beneficial effects
weight gain ([20]; in vivo): beneficial effects
severity of adverse experiences ([21]; 30-hr infusions, 20 up to 75 microgram/kg/min): generally mild
Quality of Life domains ([21]; in vivo): improvements
body weight ([21]; in vivo): beneficial effects
electrocardiograms in patients with chest discomfort ([21]; in vivo): did not exhibit changes suggestive of myocardial ischemia
time to resolution of all side effects after lowering the rate of ATP infusion ([21]; in vivo): within minutes
voluntary muscle strength ([21]; in vivo): beneficial effects
release of tissue-type plasminogen activator (tPA) [22]: profound acute release; also recorded: marked release
resolving pulmonary hypertension [23]: effective
Pulmonary Arterial Pressure [24, 34]: reducing
Pulmonary Vascular Resistance [24, 34]: reducing
Systemic Arterial Pressure [24, 34]: without any direct effect
Systemic Vascular Resistance [24, 34]: without any direct effect
Pulmonary Arterial Pressure [24, 35]: significantly decreasing
Pulmonary Vascular Resistance [24, 35]: significantly decreasing
Cardiac Output [25]: enhances
portal and total hepatic blood flow [25]: enhances
renal and hepatic microcirculation [25]: enhances
several metabolic functions [26]: beneficial
survival [27]: significant positive effects
tissue injury during reperfusion after a preceding period of ischemia [28]: protective effects
protecting the intestinal mucosal structure and function [29]: effective
maximum tolerated dose ([30]; 96-hr infusions, advanced non-small cell lung cancer): 50 microgram/kg/min
highest dose easily tolerated ([30]; patients suffering from other cancers): 100 microgram/kg/min
